# From PubChem BioAssay (NCI)
#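 GI50 marks 50% less growth. Definition used: TGI = concentration required for complete inhibition of growth.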
# How the values were obtained:
# Assay in all cases: NCI anticancer screen, dose series, 384-well format
# 786-0 renal = test system: 786-0 renal
# HCC-2998 colon = test system: HCC-2998 colon
# HCT-15 colon = test system: HCT-15 colon
# HCT-116 colon = test system: HCT-116 colon
# HL-60(TB) leukemia = test system: HL-60(TB) leukemia
# SK-MEL-5 melanoma = test system: SK-MEL-5 melanoma
# HOP-92 NSCLC = test system: HOP-92 NSCLC
# BT-549 breast = test system: BT-549 breast
# HOP-62 NSCLC = test system: HOP-62 NSCLC
# SF-295 CNS = test system: SF-295 CNS
# NCI-H226 lung = test system: NCI-H226 lung
# IGROV1 ovarian = test system: IGROV1 ovarian
# KM12 colon = test system: KM12 colon
# SF-268 CNS = test system: SF-268 CNS
# DU-145 prostate = test system: DU-145 prostate
# U251 glioblastoma = test system: U251 glioblastoma
# HS 578T breast = test system: HS 578T breast
# NCI-H23 lung = test system: NCI-H23 lung
# CAKI-1 renal = test system: CAKI-1 renal
# LOX IMVI melanoma = test system: LOX IMVI melanoma
# OVCAR-5 ovarian = test system: OVCAR-5 ovarian
# SW-620 colon = test system: SW-620 colon
# SNB-75 CNS = test system: SNB-75 CNS
# NCI-H460 NSCLC = test system: NCI-H460 NSCLC
# RPMI-8226 leukemia = test system: RPMI-8226 leukemia
# A498 renal = test system: A498 renal
# MALME-3M melanoma = test system: MALME-3M melanoma
# PC-3 prostate = test system: PC-3 prostate
# OVCAR-4 ovarian = test system: OVCAR-4 ovarian
structure (smiles),measurement,setting,value
Cc1ccc(-c2cc(C(F)(F)F)nn2-c2ccc(S(N)(=O)=O)cc2)cc1,GI50,786-0 renal,14.1 µM
same,TGI,786-0 renal,27.4 µM
same,GI50,HCC-2998 colon,14.9 µM
same,TGI,HCC-2998 colon,28.1 µM
same,GI50,HCT-15 colon,14.7 µM
same,TGI,HCT-15 colon,27.9 µM
same,GI50,HCT-116 colon,15.2 µM
same,TGI,HCT-116 colon,28.5 µM
same,GI50,HL-60(TB) leukemia,20.5 µM
same,TGI,HL-60(TB) leukemia,34.8 µM
same,GI50,SK-MEL-5 melanoma,13.8 µM
same,TGI,SK-MEL-5 melanoma,26.7 µM
same,GI50,HOP-92 NSCLC,16 µM
same,TGI,HOP-92 NSCLC,29.4 µM
same,GI50,BT-549 breast,15.9 µM
same,TGI,BT-549 breast,29.3 µM
same,GI50,HOP-62 NSCLC,15.3 µM
same,TGI,HOP-62 NSCLC,28.6 µM
same,GI50,SF-295 CNS,16.5 µM
same,TGI,SF-295 CNS,30.1 µM
same,GI50,NCI-H226 lung,13 µM
same,TGI,NCI-H226 lung,25.6 µM
same,GI50,IGROV1 ovarian,16.3 µM
same,TGI,IGROV1 ovarian,29.8 µM
same,GI50,KM12 colon,15.8 µM
same,TGI,KM12 colon,29.2 µM
same,GI50,SF-268 CNS,16.4 µM
same,TGI,SF-268 CNS,30 µM
same,GI50,DU-145 prostate,15 µM
same,TGI,DU-145 prostate,28.2 µM
same,GI50,U251 glioblastoma,16 µM
same,TGI,U251 glioblastoma,29.5 µM
same,GI50,HS 578T breast,14.5 µM
same,TGI,HS 578T breast,27.7 µM
same,GI50,NCI-H23 lung,15.6 µM
same,TGI,NCI-H23 lung,29 µM
same,GI50,CAKI-1 renal,16.8 µM
same,TGI,CAKI-1 renal,30.5 µM
same,GI50,LOX IMVI melanoma,17.6 µM
same,TGI,LOX IMVI melanoma,31.4 µM
same,GI50,OVCAR-5 ovarian,16.2 µM
same,TGI,OVCAR-5 ovarian,29.7 µM
same,GI50,SW-620 colon,17.1 µM
same,TGI,SW-620 colon,30.9 µM
same,GI50,SNB-75 CNS,10.8 µM
same,TGI,SNB-75 CNS,23 µM
same,GI50,NCI-H460 NSCLC,15.3 µM
same,TGI,NCI-H460 NSCLC,28.7 µM
same,GI50,RPMI-8226 leukemia,12.1 µM
same,TGI,RPMI-8226 leukemia,24.5 µM
same,GI50,A498 renal,15.6 µM
same,TGI,A498 renal,28.9 µM
same,GI50,MALME-3M melanoma,16.2 µM
same,TGI,MALME-3M melanoma,29.8 µM
same,GI50,PC-3 prostate,14.6 µM
same,TGI,PC-3 prostate,27.8 µM
same,GI50,OVCAR-4 ovarian,11.8 µM
